Test results published in US20100203614A1, “FATTY ALDEHYDE REDUCTASE” (Utah State University, priority 2009, published 2010).

B1: cleaved fatty aldehyde reducatase enzyme: fatty aldehyde reductase of SEQ ID NO: 2 freed from MBP by Factor Xa cleavage (protein)
chain: MAIQQVHHADTSSSKVLGQLRGKRVLITGTTGFLGKVVLERLIRAVPDIGAIYLLIRGNKRHPDARSRFLEEIATSSVFDRLREADSEGFDAFLEERIHCVTGEVTEAGFGIGQEDYRKLATELDAVINSAASVNFREELDKALAINTLCLRNIAGMVDLNPKLAVLQVSTCYVNGMNSGQVTESVIKPAGEAVPRSPDGFYEIEELVRLLQDKIEDVQARYSGKVLERKLVDLGIREANRYGWSDTYTFTKWLGEQLLMKALNGRTLTILRPSIIESALEEPAPGWIEGVKVADAIILAYAREKVTLFPGKRSGIIDVIPVDLVANSIILSLAEALGEPGRRRIYQCCSGGGNPISLGEFIDHLMAESKANYAAYDHLFYRQPSKPFLAVNRALFDLVISGVRLPLSLTDRVLKLLGNSRDLKMLRNLDTTQSLATIFGFYTAPDYIFRNDELMALANRMGEVDKGLFPVDARLIDWELYLRKIHLAGLNRYALKERKVYSLKTARQRKKAA
modifications: Marinobacter aquaeolei VT8

Experiments:
MBP-FALDR fusion protein = experiment: Inhibition of decanal reduction by MBP-FALDR in the presence of NADPH; assay type: biochemical, Marinobacter aquaeolei VT8; conditions: at the two concentrations tested
Protocol: (§1) For Fatty Aldehyde Continuous Spectrophotometric Assay Development, all assays were performed in a sealed quartz cuvette with a 1 cm path length. The cuvette and solutions were first degassed with argon on a manifold to remove oxygen from the headspace and solutions. Substrates were initially disbursed into a buffer solution containing BSA at a concentration of 0.5 mg/mL by sonication for three ten second intervals using a microtip sonicator (Branson, Danbury, Conn.). The initial assay for pH optimization included a buffer of 100 mM MOPS, 100 mM MES, and 100 mM TAPS. For reduction assays, 75 μL of a 2 mg/mL NADPH stock was added to bring the initial concentration of NADPH in the cuvette to approximately 200 μM, and an approximate absorbance at 340 nm of 1.2 based on the reported extinction coefficient of 6220 M^−1 cm^−1 for NADPH. In all assays, the reaction was run for at least two minutes with the NADPH and substrate present, prior to the addition of any enzyme, to obtain a background oxidation rate of the NADPH.
Finally, the ability of decanol to inhibit reduction of decanal was also tested.
Referring again to Table 2, the inhibition assays were run in 100 mM MES buffer pH 6.5 with 200 μM NADPH, 250 μM decanal and 125 μg of MBP-FALDR fusion protein. All compounds were dissolved in buffer except dipyridyl, which was dissolved in dimethyl sulfoxide (DMSO).

MBP-FALDR enzyme [1] = experiment: Initial assessment of activity: overnight reaction with NADPH/NADH or NADP+, GC/GC-MS analysis; assay type: biochemical, Marinobacter aquaeolei VT8
Protocol: For initial assessment of the activity of the purified MBP-FALDR enzyme, 50 μg of purified MBP-FALDR protein was added to a reaction mixture containing 100 mM of Tris buffer at pH 7.9, 100 mM NaCl, 2.4 mM of either NADPH or NADH as a reductant, and decanal, oleic acid, and hexadecanol as possible substrates. The assays were run under an argon atmosphere in septa sealed vials overnight at room temperature with constant gentle mixing. The products of the reactions were then extracted from the buffer by adding an equal volume of hexane and organic layer components were analyzed by gas chromatography equipped with a flame ionization detector (Forte HT5 column (SGE Analytical Science, Austin, Tex.), 30 meter by 0.32 mm inner diameter with 0.5 μm film thickness, with argon as a carrier and a temperature ramp from 60° C. to 360° C. increasing at 10° C. per minute). Samples containing new peaks not present in a control sample were also run through a gas chromatograph equipped with a mass spectrometer (Shimadzu GC-2010 and GCMS-QP2010S) to assign the identity of the product.
Preliminary experiments were run with the MBP-FALDR enzyme to probe possible substrates by mixing either NADH or NADPH with an aldehyde (decanal), alcohol (hexadecanol) or fatty acid (oleic acid) and then looking for changes in concentration of one or more of the potential substrates by GC analysis. The assays were allowed to run overnight in a sealed vial under an atmosphere of argon to maintain the reduced forms of the nicotinamide coenzymes. […] This initial result pointed to the likelihood that the MBP-FALDR enzyme is an NADPH-dependent fatty aldehyde reductase, and further experiments were run to characterize this activity. […] The activity of medium chain alcohol dehydrogenases from a broad range of species show rates of oxidation of alcohols that are 10% of the rates of the reduction of the corresponding aldehyde, so it is possible that this rate is too low to detect.

MBP-FALDR enzyme [2] = experiment: Reversibility and cofactor test, spectrophotometric at 340 nm (NADP+, NADH, NAD+); assay type: biochemical, Marinobacter aquaeolei VT8; conditions: NADH with decanal, NAD+ with decanol, in place of NADPH/NADP+
Excerpt: When the assay was used to check for activity with NADH in place of NADPH, NADH was substituted for NADPH at the same concentration as was used for NADPH, and the assay run as described above. Reactions using either NADP^+ or NAD^+ also used the same concentration, but it followed the increase in absorbance monitored at 340 nm. Once the pH optimum was established for the enzyme, TAPS and MOPS were removed from the buffer, and only MES was used.
To test the possible reversibility of the fatty aldehyde reducatase enzyme comprising the amino acid sequence of SEQ ID NO: 2, the oxidation of a number of alcohols to the corresponding aldehyde using NADP^+ as the oxidant were tested. These tests were performed with the MBP-FALDR enzyme. In these assays, the increase in absorbance at 340 nm was followed. Under no conditions did any reduction of NADP^+ occur in the presence of the fatty alcohols tested. As a control, the alcohol dehydrogenase from Thermoanaerobium brokii was followed with 2-propanol and the same stock of NADP^+ to confirm the integrity of the assay.

[3] = tested on: MBP-FALDR enzyme (maltose binding protein-fatty aldehyde reductase fusion protein); experiment: Continuous spectrophotometric assay of fatty aldehyde reductase activity (NADPH oxidation at 340 nm), substrate comparison and kinetics; assay type: biochemical, Marinobacter aquaeolei VT8
Protocol: as §1, with “the NADPH. […] A linear fit of the data was then used to establish the rate, and the initial background rate was subtracted, to determine the rate associated with substrate reduction by the MBP-FALDR enzyme.” for “the NADPH.”
Having established that the MBP-FALDR would utilize NADPH as a substrate, it was possible to employ a continuous spectrophotometric assay to monitor substrate reduction rates based on the loss of absorbance at 340 nm when NADPH is oxidized to NADP^+. Using this assay, it was possible to establish the pH dependence of the reduction reaction. The rate of reaction was highest at pH 6.3, with a steep increase in activity going from 8.0 to 6.3. The rate at 6.3 was only slightly greater than at 6.5 ([…]). Several factors had to be considered in establishing the optimal pH of the assay. The first was the background oxidation of the NADPH without any MBP-FALDR enzyme present. […] The assays were run under an argon atmosphere to minimize oxidation of the NADPH by O2. A further consideration was the rapid degradation that occurs at the lowest pH values. […] So, for standard assays used here, a pH of 6.5 was selected, where the activity was minimally affected by slight variations in pH. The following discussion is useful in understanding some features and benefits of the various embodiments of the invention:
Utilizing the continuous assay to monitor MBP-FALDR activity, the dependence of rate on substrate concentration was determined for all of the commercially available substrates described above. Each assay was repeated multiple times to confirm the results from each single determination. The results obtained for cis-11-hexadecenal are shown in FIG. 2 and are representative of the results obtained for repeated determinations and for the other substrates. […] In addition, several factors could limit the observed activity. All of the substrates tested have limited solubility in aqueous solutions, and must first be suspended in solution via sonication. Even under these conditions, it is likely that the substrates exist inside micelles. The sonication process utilized here could result in the partial degradation of the substrate over time. Additionally, the suspension of the substrate in solution is only temporary, and the substrate slowly separates from aqueous solution. Due to these limitations, the measured activity is likely to be an underestimate of the actual activity. In the cell, the enzyme and substrate are likely associated with the hydrophobic membranes. […] It was also observed that the MBP-FALDR enzyme was unstable over time, even when stored at 4° C., losing as much as 50% of the activity over a period of a week. Though the purification is quite rapid, it is uncertain how much activity is lost during preparation. […]

[4] = Decanal reduction after Factor Xa removal of maltose binding protein; assay type: biochemical; conditions: MBP removed by Factor Xa cleavage
Protocol: Since all the assays were conducted with the MBP-FALDR fusion protein, a principle concern was whether the fusion protein accurately represented the activity of the wild-type fatty aldehyde reducatase enzyme comprising the amino acid sequence of SEQ ID NO: 2. To examine whether the maltose binding protein affected the activity of the wild-type fatty aldehyde reducatase enzyme comprising the amino acid sequence of SEQ ID NO: 2, the maltose binding protein was removed from the N-terminus of the fatty aldehyde reducatase enzyme comprising the amino acid sequence of SEQ ID NO: 2 by Factor Xa cleavage. The near complete cleavage of maltose binding protein was verified by SDS-PAGE. This cleavage is facilitated by the incorporation of a factor Xa cleavage site (Ile-Glu-Gly-Arg) just upstream of the EcoRI site of the pMAL-c2x vector.

Molecule | inhibition of decanal reduction (MBP-FALDR fusion protein) [%] | reverse reaction: aldehyde production by GC (MBP-FALDR enzyme [1]; with NADP+) | activity over background with NADH or NAD+ (MBP-FALDR enzyme [2]) | substrate conversion by GC (MBP-FALDR enzyme [1]; with NADPH, overnight, argon, room temperature, new peak confirmed as decanol by MS) | substrate activity in words ([3]; compared with decanal, substrate 100 μg/mL) | activity (substrate reduction rate) ([3]; substrate 100 μg/mL, 160 μg enzyme) [nmol/min/mg] | Relative Activity (Percent of Decanal) ([3]; substrate 100 μg/mL, 160 μg enzyme, decanal = 85 nmols/min/mg = 100) | Km ([3]; substrate of MBP-FALDR, Michaelis-Menten fit, NADPH, FIG. 2 substrate is cis-11-hexadecenal) [µM] | rate of substrate reduction versus MBP-FALDR fusion protein [4]
CCCCCCCCCCO [decanol] | ~45 | no detectable levels | no indication of activity over background | – | – | – | – | – | –
CCCCCCCCCC=O [Decanal] | – | – | no indication of activity over background | decrease in the decanal peak | highest activity of the substrates tested | 85 | 100% of Decanal | ~100 | –
B1 | – | – | – | – | – | – | – | – | did not reveal any loss or improvement
